These results are taken from publication PMC11846820, “Inhibition of DYRK1B BY C81 impedes inflammatory processes in leukocytes by reducing STAT3 activity” (Cellular and Molecular Life Sciences: CMLS, 2025).

Common to all, as to test: NanoBRET target engagement (tracer displacement) in intact HEK293T cells
Common to all, as to assay type: cell-based
A general note: Bioluminescence resonance energy transfer reports proximity on the nanometre scale.

In assay [1] the target is T1, DYRK2 (Homo sapiens, UniProt Q92630).
T1 construct: Full-length, terminal NanoLuc fusion
T1 sequence (Q92630 1-601): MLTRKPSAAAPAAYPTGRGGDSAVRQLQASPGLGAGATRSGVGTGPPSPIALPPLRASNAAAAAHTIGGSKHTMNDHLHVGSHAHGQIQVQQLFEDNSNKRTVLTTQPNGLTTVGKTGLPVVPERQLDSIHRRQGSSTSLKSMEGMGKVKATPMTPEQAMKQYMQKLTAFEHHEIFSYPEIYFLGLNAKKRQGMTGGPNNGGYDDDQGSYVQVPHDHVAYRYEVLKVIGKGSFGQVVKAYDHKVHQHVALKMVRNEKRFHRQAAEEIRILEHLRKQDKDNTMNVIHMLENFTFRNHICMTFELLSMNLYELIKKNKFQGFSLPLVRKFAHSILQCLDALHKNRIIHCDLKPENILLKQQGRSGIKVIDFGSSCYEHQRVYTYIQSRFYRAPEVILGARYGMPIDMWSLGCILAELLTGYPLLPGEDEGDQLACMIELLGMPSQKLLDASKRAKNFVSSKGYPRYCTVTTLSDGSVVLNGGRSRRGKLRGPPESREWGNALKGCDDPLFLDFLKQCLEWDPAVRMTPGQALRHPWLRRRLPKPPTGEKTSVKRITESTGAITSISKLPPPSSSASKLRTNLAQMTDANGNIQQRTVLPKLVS

Assay [2] addresses T2, DYRK1A (Homo sapiens, UniProt Q13627).
T2 construct: Full-length, terminal NanoLuc fusion

The target of assay [3] is T3, DYRK1B (Homo sapiens, UniProt Q9Y463).
T3 construct: Full-length, terminal NanoLuc fusion
T3 sequence (Q9Y463 whole entry, the tested form may be a part): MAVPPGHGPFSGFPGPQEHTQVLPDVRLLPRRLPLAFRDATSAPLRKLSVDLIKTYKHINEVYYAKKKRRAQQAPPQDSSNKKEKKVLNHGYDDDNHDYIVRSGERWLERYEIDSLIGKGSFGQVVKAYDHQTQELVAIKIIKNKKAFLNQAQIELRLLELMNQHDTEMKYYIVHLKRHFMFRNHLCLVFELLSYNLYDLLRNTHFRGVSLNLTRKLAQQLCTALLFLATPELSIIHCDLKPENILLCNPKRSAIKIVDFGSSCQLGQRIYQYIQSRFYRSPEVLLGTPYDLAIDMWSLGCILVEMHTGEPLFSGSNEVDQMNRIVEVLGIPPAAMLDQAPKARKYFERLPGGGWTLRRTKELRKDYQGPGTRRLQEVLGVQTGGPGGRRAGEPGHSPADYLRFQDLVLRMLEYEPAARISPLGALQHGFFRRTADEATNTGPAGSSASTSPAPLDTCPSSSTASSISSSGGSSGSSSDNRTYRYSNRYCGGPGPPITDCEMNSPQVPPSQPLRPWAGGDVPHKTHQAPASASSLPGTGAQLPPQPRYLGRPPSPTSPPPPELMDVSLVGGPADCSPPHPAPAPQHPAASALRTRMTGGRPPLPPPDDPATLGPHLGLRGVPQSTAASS

The target of assay [4] is T4, CLK4 (Homo sapiens, UniProt Q9HAZ1).
T4 construct: Full-length, terminal NanoLuc fusion
T4 sequence (Q9HAZ1 whole entry, the tested form may be a part): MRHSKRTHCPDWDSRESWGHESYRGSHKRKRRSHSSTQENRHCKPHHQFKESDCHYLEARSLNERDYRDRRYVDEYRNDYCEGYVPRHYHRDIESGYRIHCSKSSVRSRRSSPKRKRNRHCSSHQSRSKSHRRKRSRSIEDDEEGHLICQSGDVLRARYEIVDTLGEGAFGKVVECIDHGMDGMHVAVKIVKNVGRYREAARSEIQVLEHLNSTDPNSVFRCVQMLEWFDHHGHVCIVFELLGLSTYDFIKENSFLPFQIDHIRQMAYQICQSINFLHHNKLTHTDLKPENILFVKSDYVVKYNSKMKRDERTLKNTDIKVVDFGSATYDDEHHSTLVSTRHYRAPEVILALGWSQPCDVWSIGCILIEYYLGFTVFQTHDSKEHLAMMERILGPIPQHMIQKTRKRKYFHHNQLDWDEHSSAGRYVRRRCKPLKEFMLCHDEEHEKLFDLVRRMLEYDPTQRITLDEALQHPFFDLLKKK

In assay [5] the target is T5, CLK1 (Homo sapiens, UniProt P49759).
T5 construct: Full-length, terminal NanoLuc fusion
T5 sequence (P49759 whole entry, the tested form may be a part): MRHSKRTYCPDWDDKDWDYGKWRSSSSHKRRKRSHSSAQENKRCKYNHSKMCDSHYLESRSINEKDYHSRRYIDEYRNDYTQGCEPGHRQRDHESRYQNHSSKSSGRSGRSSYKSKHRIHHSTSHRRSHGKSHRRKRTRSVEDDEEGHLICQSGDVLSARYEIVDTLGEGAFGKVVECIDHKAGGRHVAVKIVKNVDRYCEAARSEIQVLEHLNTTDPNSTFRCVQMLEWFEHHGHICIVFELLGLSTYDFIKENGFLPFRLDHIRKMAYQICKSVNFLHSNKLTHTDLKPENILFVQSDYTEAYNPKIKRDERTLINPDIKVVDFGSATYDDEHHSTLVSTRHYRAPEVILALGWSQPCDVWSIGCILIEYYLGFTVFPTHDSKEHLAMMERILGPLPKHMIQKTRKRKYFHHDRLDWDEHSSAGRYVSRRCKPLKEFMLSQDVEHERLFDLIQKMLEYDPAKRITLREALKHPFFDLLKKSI

The target of assay [6] is T6, CLK2 (Homo sapiens, UniProt P49760).
T6 construct: Full-length, terminal NanoLuc fusion
T6 sequence (P49760 whole entry, the tested form may be a part): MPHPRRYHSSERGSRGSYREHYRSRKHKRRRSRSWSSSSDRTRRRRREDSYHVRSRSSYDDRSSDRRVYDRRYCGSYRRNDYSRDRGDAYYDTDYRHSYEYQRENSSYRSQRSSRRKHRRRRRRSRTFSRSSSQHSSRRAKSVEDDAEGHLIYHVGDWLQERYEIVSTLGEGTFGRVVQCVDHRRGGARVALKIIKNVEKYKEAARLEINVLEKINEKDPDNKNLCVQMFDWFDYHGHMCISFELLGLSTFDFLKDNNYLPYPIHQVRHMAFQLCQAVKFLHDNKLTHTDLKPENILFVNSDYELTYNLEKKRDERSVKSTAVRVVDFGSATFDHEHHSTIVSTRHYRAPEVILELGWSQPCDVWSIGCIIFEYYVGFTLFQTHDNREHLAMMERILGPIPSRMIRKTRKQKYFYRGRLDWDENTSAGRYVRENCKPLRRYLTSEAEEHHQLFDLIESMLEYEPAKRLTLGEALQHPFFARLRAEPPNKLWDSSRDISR

With `Cc1nccc(-c2cn(Cc3ccccc3)c3cnccc23)n1` [AZ-DYRK1B-33], the EC50 in assay [1] is 3.4 µM; in assay [2] it was 3.8 µM; in assay [3], 537 nM; in assay [4], 119 nM; in assay [5], 299 nM; in assay [6], 5 µM.

Broadly, the EC50 is the concentration giving half of the maximal effect. Read a high EC50 as a need for much substance.
